Measurements: patent publication US20120165339A1, “CYCLOPROPANE DERIVATIVES” (EISAI R&D MANAGEMENT CO., LTD., priority 2010, published 2012)
Where two headings read alike, the source gives them in different places.

How the values were obtained:
OX1 [1] = target: T1, OX1 (Homo sapiens, UniProt O43613); assay: Orexin-receptor binding ability, [125I]-OX-A, CHO cell membranes expressing OX1; set-up: expressed in transfected cells; host or cells: CHO cells (membrane preparation); settings: membranes of recombinant CHO cells, 0.2 nM [125I]-OX-A tracer; read-out: OX1 (IC50)
T1 sequence (O43613 1-425): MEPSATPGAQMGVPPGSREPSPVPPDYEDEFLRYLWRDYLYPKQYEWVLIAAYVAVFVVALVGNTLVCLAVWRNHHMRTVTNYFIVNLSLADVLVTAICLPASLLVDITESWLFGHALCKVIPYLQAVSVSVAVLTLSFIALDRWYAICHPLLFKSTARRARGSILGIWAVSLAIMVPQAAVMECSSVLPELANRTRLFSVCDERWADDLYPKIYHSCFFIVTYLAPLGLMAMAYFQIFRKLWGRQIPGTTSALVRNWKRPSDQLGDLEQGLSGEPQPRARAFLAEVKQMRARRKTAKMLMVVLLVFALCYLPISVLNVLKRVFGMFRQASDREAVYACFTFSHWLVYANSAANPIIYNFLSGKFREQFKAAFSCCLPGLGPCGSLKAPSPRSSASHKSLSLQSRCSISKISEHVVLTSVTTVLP
Experimental: (§1) The assay was carried out using a 96-well Wheat Germ Agglutinin Flash Plate (PerkinElmer). The volume in a single assay well was 100 ul, and the composition of the reaction solution was as follows:
(§2) 25 mM HEPES (pH 7.5), 1 mM CaCl2, 4.5 mM MgCl2, 0.5% BSA (bovine serum albumin), 0.1% sodium azide, 0.05% Tween-20, and 0.2% DMSO.
Cell membranes were prepared from recombinant CHO cells that expressed OX2 or OX1. The cell membranes were used in an amount of 5 μg protein/assay. […] Finally, the radioactivity of each well was measured using a scintillation counter (TopCount, PerkinElmer). The obtained results are shown in terms of IC50 values (nM) in the following table.

OX2 [2] = target: T2, OX2 (Homo sapiens, UniProt O43614); assay: Orexin-receptor binding ability, [125I]-OX-A, CHO cell membranes expressing OX2; set-up: expressed in transfected cells; host or cells: CHO cells (membrane preparation)
T2 sequence (O43614 1-444): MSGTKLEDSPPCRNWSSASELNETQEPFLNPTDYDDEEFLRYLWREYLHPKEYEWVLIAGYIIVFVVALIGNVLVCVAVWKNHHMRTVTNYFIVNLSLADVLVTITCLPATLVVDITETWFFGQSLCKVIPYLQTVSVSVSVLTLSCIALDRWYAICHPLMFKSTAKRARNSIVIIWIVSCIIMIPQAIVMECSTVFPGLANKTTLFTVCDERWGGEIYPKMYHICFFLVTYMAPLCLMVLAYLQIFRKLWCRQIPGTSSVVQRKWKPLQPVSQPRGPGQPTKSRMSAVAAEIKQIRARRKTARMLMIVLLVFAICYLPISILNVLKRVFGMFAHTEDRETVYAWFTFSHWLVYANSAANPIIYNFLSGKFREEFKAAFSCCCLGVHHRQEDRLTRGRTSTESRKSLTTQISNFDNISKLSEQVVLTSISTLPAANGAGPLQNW
Experimental: as §1, §2
Cell membranes were prepared from recombinant CHO cells that expressed OX2 or OX1. The cell membranes were used in an amount of 5 μg protein/assay. Test compound in various concentrations, and 0.2 nM [^125I]-OX-A as tracer were added to the cell membranes, and then allowed to react at room temperature for 30 minutes. After completion of the reaction, the reaction solution as a whole was discarded, and the wells were then washed once with 200 ul of wash buffer (25 mM HEPES (pH 7.5), 1 mM CaCl2, 5 mM MgCl2, 0.5% BSA, 0.1% sodium azide, 0.05% Tween-20, and 525 mM sodium chloride). Finally, the radioactivity of each well was measured using a scintillation counter (TopCount, PerkinElmer). The obtained results are shown in terms of IC50 values (nM) in the following table.

OX1 [3] = target: T1, OX1; assay: Antagonism PLAP reporter assay, HEK-293 cells expressing human OX1; type: cell-based; set-up: expressed in transfected cells; host or cells: HEK-293 cell line, expression vector pBabeCLIH; settings: HEK-293, 1 nM human OX-A; IC50 converted to Ki by Cheng-Prusoff equation
Experimental: (§3) The antagonistic function of the compound of the present invention to prevent the activation of OX2 and OX1 by orexin-A (OX-A), which is a natural peptide agonist, was measured using a cell-based reporter assay. A HEK-293 cell line expressing genetically recombinant human OX2 (accession No. NM_001526.3) or a HEK-293 cell line expressing genetically recombinant human OX1 (accession No. NM_001525.2), which had pBabeCLIH as expression vector, was used. The cells were plated at a density of 10,000 cells/well onto a non-coated 96-well plate in Dulbecco's modified Eagle medium (Sigma Cat No. D6046: 10% v/v heat-inactivated fetal bovine serum was contained). The cells were cultured at 37° C. overnight, so that they could adhere to the plate. On the following day, cells were incubated with a compound of the present invention dissolved in Dulbecco's modified Eagle medium (Sigma Cat No. A8806: 0.1% w/v bovine serum albumin was contained), and added to the cell plate to reach a final concentration of 0.1% dimethyl sulfoxide.
(§4) The thus obtained mixture was incubated at room temperature for 1 hour. Thereafter, human OX-A and forskolin were dissolved in the same medium as described above, which contained fetal bovine serum albumin, and the medium was then added to the cells, resulting in a final concentration of 300 nM forskolin. Subsequently, the cells were cultured at 37° C. for approximately 18 to 24 hours. During the culture, as a result of activation of the orexin receptor and subsequent dose-dependent increase in intracellular calcium concentration, a reporter enzyme, placental alkaline phosphatase (PLAP), was expressed under the control of a CRE x4+VIP promoter in a pBabeCLcre4vPdNN vector and secreted into the culture medium supernatant. On the following day, reporter enzyme activity was detected by mixing 5 ul of the culture medium supernatant with 20 ul of detection buffer (containing 1.34 g/L sodium bicarbonate, 1.27 g/L sodium carbonate and 0.2 g/L magnesium sulfate heptahydrate in water) and 25 ul of Lumi-Phos530 reagent (Wako Pure Chemical Industries Ltd.), followed by incubating the obtained mixture light-protected at room temperature for 2 hours, before performing luminescence measurement (ARVO Reader, PerkinElmer). The Kd value of human OX-A with respect to each receptor was measured by titration from 0 to 300 nM. Then, the IC50 value of the compound of the present invention with respect to the activity of 1 nM human OX-A was converted into a Ki value (nM) using the Cheng-Prusoff equation.

OX2 [4] = target: T2, OX2; assay: Antagonism PLAP reporter assay, HEK-293 cells expressing human OX2; type: cell-based; set-up: expressed in transfected cells; host or cells: HEK-293 cell line, expression vector pBabeCLIH; settings: HEK-293, 1 nM human OX-A; IC50 converted to Ki by Cheng-Prusoff equation
Experimental: as §3, §4

[5] = membranes of recombinant CHO cells, 0.2 nM [125I]-OX-A tracer, read-out: OX2 (IC50)

Row | Structure (SMILES) | IC50 (OX1 [1]) | IC50 (OX2 [2]; [5]) | IC50 (OX2 [2]) | Ki (OX1 [3]) | Ki (OX2 [4])
1 | CCn1cc(OC[C@@]2(c3ccccc3)C[C@H]2C(=O)Nc2ccc(F)cn2)ccc1=O (racemic) [Example 56] | 160 nM | – | 14 nM | 158 nM | 9.1 nM
2 | COc1ccc(OCC2(c3ccccc3)CC2C(=O)Nc2ccccc2)cc1OC (stereo not drawn) [Example 1] | 7 nM | 7 nM | – | 395 nM | 54 nM
3 | Cc1cnc(OC[C@@]2(c3ccccc3)C[C@H]2C(=O)Nc2ccc(F)cn2)c(C)n1 [Example 65] | 57 nM | 26 nM | – | – | –
4 | Cc1cnc(OC[C@@]2(c3ccccc3)C[C@H]2C(=O)Nc2ccc(C#N)cn2)c(C)n1 [Example 66] | 74 nM | 21 nM | – | – | –
5 | Cc1cnc(OC[C@@]2(c3ccccc3)C[C@H]2C(=O)Nc2ccc(Cl)cn2)c(C)n1 [Example 67] | 33 nM | 7 nM | – | – | –
6 | CCn1cc(OC[C@@]2(c3ccccc3)C[C@H]2C(=O)Nc2ccccn2)c(C)n1 [Example 69] | 2130 nM | 69 nM | – | – | –
7 | CCn1cc(OC[C@@]2(c3ccccc3)C[C@H]2C(=O)Nc2ccc(F)cc2)c(C)n1 [Example 71] | 1310 nM | 45 nM | – | – | –
8 | Cc1nn(C)cc1OCC1(c2ccccc2)CC1C(=O)Nc1ccc(Cl)cn1 (stereo not drawn) [Example 83] | 682 nM | 15 nM | – | – | –
9 | CCn1cc(OC[C@@]2(c3cccc(F)c3)C[C@H]2C(=O)Nc2ccccn2)c(C)n1 [Example 85] | 59 nM | 8 nM | – | – | –
10 | CCn1cc(OC[C@@]2(c3cccc(F)c3)C[C@H]2C(=O)Nc2ccc(F)cn2)c(C)n1 [Example 86] | 15 nM | 5 nM | – | – | –
11 | CCn1cc(OC[C@@]2(c3cccc(F)c3)C[C@H]2C(=O)Nc2ccc(F)cn2)c(C)n1 [Example 87] | 136 nM | 21 nM | – | – | –
12 | CCn1cc(OC[C@@]2(c3cccc(F)c3)C[C@H]2C(=O)Nc2ccc(F)cc2)c(C)n1 [Example 88] | 84 nM | 12 nM | – | – | –
13 | CCn1cc(OC[C@@]2(c3cccc(F)c3)C[C@H]2C(=O)Nc2cc(OC)c(F)cn2)c(C)n1 [Example 89] | > 200 nM | 93 nM | – | – | –
14 | CCn1cc(OC[C@@]2(c3cccc(F)c3)C[C@H]2C(=O)Nc2ccc(C#N)cn2)c(C)n1 [Example 90] | 13 nM | 8 nM | – | – | –
15 | CCn1cc(OC[C@@]2(c3cccc(F)c3)C[C@H]2C(=O)Nc2ccnc(F)c2)c(C)n1 [Example 91] | > 200 nM | 93 nM | – | – | –
16 | COc1cncc(NC(=O)[C@@H]2C[C@@]2(COc2cc(=O)n(C)nc2C)c2ccccc2)c1 [Example 92, (1R,2S)-2-[(1,3-dimethyl-6-oxo-1,6-dihydropyridazin-4-yl)oxymethyl]-N-(5-methoxypyridin-3-yl)-2-phenylcyclopropanecarboxamide] | 1360 nM | 5 nM | – | – | –
17 | Cc1nn(C)c(=O)cc1OC[C@@]1(c2ccccc2)C[C@H]1C(=O)Nc1ccc(F)cc1 [Example 93, (1R,2S)-2-[(1,3-dimethyl-6-oxo-1,6-dihydropyridazin-4-yl)oxymethyl]-N-(4-fluorophenyl)-2-phenylcyclopropanecarboxamide] | 410 nM | 27 nM | – | – | –
18 | Cc1cc(NC(=O)[C@@H]2C[C@@]2(COc2cc(=O)n(C)nc2C)c2ccccc2)ncc1F [Example 94] | 771 nM | 39 nM | – | – | –

Now from value to molecule, other results behind:

Row | IC50 (OX1 [1]) | IC50 (OX2 [2]; [5]) | Structure (SMILES) | IC50 (OX2 [2]) | Ki (OX1 [3]) | Ki (OX2 [4])
19 | 1600 nM | 59 nM | Cc1nn(C)c(=O)cc1OC[C@@]1(c2ccccc2)C[C@H]1C(=O)Nc1ccc(Cl)cn1 [Example 95] | – | – | –
20 | 132 nM | 55 nM | CCn1nc(C)c(OC[C@@]2(c3ccccc3)C[C@H]2C(=O)Nc2ccc(F)cc2)cc1=O [Example 98] | – | – | –
21 | 364 nM | 22 nM | CCn1cc(CCC2(c3ccccc3)CC2C(=O)Nc2ccc(Cl)cn2)cn1 (stereo not drawn) [Example 102] | – | – | –
22 | 101 nM | 6 nM | Cc1cc(NC(=O)[C@@H]2C[C@@]2(CCn2nc(C(F)F)nc2C)c2ccccc2)ncc1F [Example 108, (1R,2S)-2-[2-(3-difluoromethyl-5-methyl-1H-1,2,4-triazol-1-yl)ethyl]-N-(5-fluoro-4-methylpyridin-2-yl)-2-phenylcyclopropanecarboxamide] | – | – | –
23 | 1330 nM | 71 nM | Cc1nc(C(F)F)nn1CC[C@@]1(c2ccccc2)C[C@H]1C(=O)Nc1ccc(F)cn1 [Example 109] | – | – | –
24 | 196 nM | 36 nM | Cc1nc(C(F)F)nn1CC[C@@]1(c2ccccc2)C[C@H]1C(=O)Nc1ccc(Cl)cn1 [Example 110] | – | – | –
25 | 655 nM | 41 nM | Cc1nc(C(F)F)nn1CC[C@@]1(c2ccccc2)C[C@H]1C(=O)Nc1ccc(F)cc1 [Example 111] | – | – | –
26 | – | 33 nM | Cc1nc(C(F)F)nn1CC[C@@]1(c2ccccc2)C[C@H]1C(=O)Nc1ccc(C#N)cn1 [Example 112] | – | – | –
27 | > 2000 nM | 89 nM | COc1nc(C)n(CCC2(c3ccccc3)CC2C(=O)Nc2ccc(Cl)cn2)n1 (stereo not drawn) [Example 116] | – | – | –
28 | 456 nM | 46 nM | COc1cn(CCC2(c3ccccc3)CC2C(=O)Nc2ccc(Cl)cn2)ccc1=O (stereo not drawn) [Example 117] | – | – | –
29 | 2250 nM | 55 nM | Cc1csc(NC(=O)[C@@H]2C[C@@]2(CCn2nc(C(F)(F)F)nc2C)c2ccccc2)n1 [Example 124] | – | – | –
30 | 266 nM | 23 nM | Cc1nc(C2CC2)nn1CC[C@@]1(c2ccccc2)C[C@H]1C(=O)Nc1ccc(C#N)cn1 [Example 127] | – | – | –
